Assay results as given in ChEMBL document CHEMBL1201862, “PubChem BioAssay data set” (2004).
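These data come from cells grown in 96-well plates and exposed to compound for 48 hours at five concentrations. Abbreviation: GI50, concentration required for 50% inhibition of growth.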 The source made the active and inactive calls. Rule as the data show it: active = GI50 up to about 1.1 µM and inactive = higher.

Key:
Test in all cases: NCI tumour cell line growth inhibition, 48 h
786-0 = test system: 786-0
CAKI-1 = test system: CAKI-1
COLO 205 = test system: COLO 205
DU-145 = test system: DU-145
HCC 2998 = test system: HCC 2998
HCT-15 = test system: HCT-15
HOP-62 = test system: HOP-62
IGROV-1 = test system: IGROV-1
KM12 = test system: KM12
M14 = test system: M14
MDA-MB-435 = test system: MDA-MB-435
MOLT-4 = test system: MOLT-4
NCI-H460 = test system: NCI-H460
NCI-H522 = test system: NCI-H522
OVCAR-5 = test system: OVCAR-5
RXF 393 = test system: RXF 393
SF-539 = test system: SF-539
SK-MEL-5 = test system: SK-MEL-5
SK-OV-3 = test system: SK-OV-3
SNB-75 = test system: SNB-75

Row | Structure (SMILES) | GI50 (786-0) | GI50 (CAKI-1) | GI50 (COLO 205) | GI50 (DU-145) | GI50 (HCC 2998) | GI50 (HCT-15) [µM] | GI50 (HOP-62) | GI50 (IGROV-1) | GI50 (KM12) | GI50 (M14) | GI50 (MDA-MB-435) | GI50 (MOLT-4) | GI50 (NCI-H460) | GI50 (NCI-H522) | GI50 (OVCAR-5) | GI50 (RXF 393) | GI50 (SF-539) | GI50 (SK-MEL-5) | GI50 (SK-OV-3) | GI50 (SNB-75)
1 | COC(=O)[C@]1(c2cc3ccccc3[nH]2)CC2CN(CC(=O)N(C)OC)C1C1OC(C)(C)OC21 (stereo not given in full) | 45.9 µM (inactive) | 54.2 µM (inactive) | 31.7 µM (inactive) | > 100 µM (inactive) | 38 µM (inactive) | 39.9 | 83.9 µM (inactive) | 59.3 µM (inactive) | 29.6 µM (inactive) | 41.3 µM (inactive) | 44.2 µM (inactive) | 8.32 µM (inactive) | 39 µM (inactive) | > 100 µM (inactive) | > 100 µM (inactive) | 45.8 µM (inactive) | > 100 µM (inactive) | 31 µM (inactive) | > 100 µM (inactive) | > 100 µM (inactive)
2 | CCCCCCCC/C=C1\CCC(CN2CCOCC2)C1=O (stereo not given) | 1.68 µM (inactive) | 8.87 µM (inactive) | 5.77 µM (inactive) | 5.3 µM (inactive) | 11.5 µM (inactive) | 3.09 | 15.1 µM (inactive) | 7.35 µM (inactive) | 3.41 µM (inactive) | 5.37 µM (inactive) | 4.81 µM (inactive) | 2.13 µM (inactive) | 16.5 µM (inactive) | 2.69 µM (inactive) | 20.4 µM (inactive) | 12.5 µM (inactive) | 7.74 µM (inactive) | 10.1 µM (inactive) | 19.9 µM (inactive) | 2.61 µM (inactive)
3 | CCOC(=O)[C@@H]1ON2O[C@@H](OC3CCCCC3c3ccccc3)C[C@H]3OC(=O)[C@@H]1C32 (stereo not given in full) | > 100 µM (inactive) | 51.9 µM (inactive) | > 100 µM (inactive) | > 100 µM (inactive) | 66.7 µM (inactive) | > 100 | > 100 µM (inactive) | > 100 µM (inactive) | > 100 µM (inactive) | > 100 µM (inactive) | 91.2 µM (inactive) | > 100 µM (inactive) | 38.1 µM (inactive) | 87.1 µM (inactive) | > 100 µM (inactive) | > 100 µM (inactive) | > 100 µM (inactive) | > 100 µM (inactive) | > 100 µM (inactive) | > 100 µM (inactive)
4 | Cc1cc(S(=O)(=O)Nc2nc(-c3ccccn3)n[nH]2)c(S)cc1Cl | 12.1 µM (inactive) | 5.21 µM (inactive) | 25.9 µM (inactive) | 19.2 µM (inactive) | 15 µM (inactive) | 5.68 | 9.75 µM (inactive) | 25.3 µM (inactive) | 20.4 µM (inactive) | 15.2 µM (inactive) | 25.1 µM (inactive) | 22.7 µM (inactive) | 10.6 µM (inactive) | 27.4 µM (inactive) | 15.5 µM (inactive) | 17.4 µM (inactive) | 21.7 µM (inactive) | 8.55 µM (inactive) | 12.9 µM (inactive) | 28.1 µM (inactive)
5 | Nn1c(Sc2nc3ccccc3c(=O)n2N)nc2ccccc2c1=O | 4.72 µM (inactive) | 6.37 µM (inactive) | 13.8 µM (inactive) | 20.2 µM (inactive) | 15.2 µM (inactive) | 3.37 | 16.6 µM (inactive) | 6.5 µM (inactive) | 11.7 µM (inactive) | 1.8 µM (inactive) | 6.22 µM (inactive) | 1.63 µM (inactive) | 19.5 µM (inactive) | 1.69 µM (inactive) | 16.5 µM (inactive) | 7.85 µM (inactive) | 2.48 µM (inactive) | 3.96 µM (inactive) | 20.4 µM (inactive) | 11.6 µM (inactive)
6 | CCC(=O)/C=C/c1ccccc1 | 46 µM (inactive) | 56.1 µM (inactive) | > 100 µM (inactive) | > 100 µM (inactive) | 63.1 µM (inactive) | 35.9 | > 100 µM (inactive) | 76.9 µM (inactive) | 14.6 µM (inactive) | 52.8 µM (inactive) | 33.8 µM (inactive) | 26 µM (inactive) | 70.3 µM (inactive) | > 100 µM (inactive) | > 100 µM (inactive) | 73.3 µM (inactive) | 53 µM (inactive) | 33 µM (inactive) | 31.3 µM (inactive) | > 100 µM (inactive)
7 | O=C(O)CCN(CCC(=O)O)c1ccc(/C=C2\SC(=S)NC2=O)cc1 | > 100 µM (inactive) | > 100 µM (inactive) | > 100 µM (inactive) | > 100 µM (inactive) | > 100 µM (inactive) | > 100 | > 100 µM (inactive) | > 100 µM (inactive) | > 100 µM (inactive) | > 100 µM (inactive) | > 100 µM (inactive) | > 100 µM (inactive) | > 100 µM (inactive) | 91.6 µM (inactive) | > 100 µM (inactive) | > 100 µM (inactive) | > 100 µM (inactive) | > 100 µM (inactive) | > 100 µM (inactive) | > 100 µM (inactive)
8 | CC1(C)S[C@@H]2[C@H](NC(=O)C3(N)CCCCC3)C(=O)N2[C@H]1C(=O)O [CYCLACILLIN] | > 100 µM (inactive) | > 100 µM (inactive) | > 100 µM (inactive) | > 100 µM (inactive) | > 100 µM (inactive) | > 100 | > 100 µM (inactive) | > 100 µM (inactive) | > 100 µM (inactive) | > 100 µM (inactive) | > 100 µM (inactive) | > 100 µM (inactive) | > 100 µM (inactive) | > 100 µM (inactive) | > 100 µM (inactive) | > 100 µM (inactive) | > 100 µM (inactive) | > 100 µM (inactive) | > 100 µM (inactive) | > 100 µM (inactive)
9 | O=P1(Cc2ccccc2)N(Cc2ccccc2)[C@@H]2CCCC[C@H]2N1Cc1ccccc1 | 13 µM (inactive) | 10.4 µM (inactive) | 5.77 µM (inactive) | 12.6 µM (inactive) | 8.89 µM (inactive) | 9.91 | 15.5 µM (inactive) | 6.18 µM (inactive) | 5.86 µM (inactive) | 4.34 µM (inactive) | 5.96 µM (inactive) | 2.72 µM (inactive) | 8.07 µM (inactive) | 3.97 µM (inactive) | 11.6 µM (inactive) | 9.51 µM (inactive) | 17 µM (inactive) | 1.79 µM (inactive) | 13 µM (inactive) | 6.79 µM (inactive)
10 | C[C@@H]1[C@@H](C)C(c2ccccc2)O[Si]1(C(C)(C)C)C(C)(C)C (stereo not given in full) | 16 µM (inactive) | 17.1 µM (inactive) | 15.7 µM (inactive) | 17.6 µM (inactive) | 19.8 µM (inactive) | 23.1 | 17.5 µM (inactive) | 16.7 µM (inactive) | 16.3 µM (inactive) | 18.2 µM (inactive) | 25.6 µM (inactive) | 16 µM (inactive) | 17.4 µM (inactive) | 15.1 µM (inactive) | 17.6 µM (inactive) | 17.1 µM (inactive) | 17 µM (inactive) | 17.4 µM (inactive) | 26.5 µM (inactive) | 16 µM (inactive)
11 | Oc1ccc(SCc2cc(O)ccc2O)cc1 | 12.8 µM (inactive) | 6.14 µM (inactive) | 19.2 µM (inactive) | 24.7 µM (inactive) | 22.8 µM (inactive) | 9.55 | 14.8 µM (inactive) | 10.1 µM (inactive) | 17.5 µM (inactive) | 18.4 µM (inactive) | 13.1 µM (inactive) | 3.86 µM (inactive) | 28.9 µM (inactive) | 1.79 µM (inactive) | 20.4 µM (inactive) | 11.9 µM (inactive) | 3.54 µM (inactive) | 10 µM (inactive) | 30.2 µM (inactive) | 20.9 µM (inactive)
